Assay results published in publication PMC3372491, “Application of Consensus Scoring and Principal Component Analysis for Virtual Screening against β-Secretase (BACE-1)” (PLoS ONE, 2012).

Target: T1, β-secretase (BACE-1) (Homo sapiens, UniProt P56817)
T1 construct: gene BACE1
Experiment: BACE-1 FRET enzymatic assay
Format: biochemical

T1 sequence (P56817 46-457): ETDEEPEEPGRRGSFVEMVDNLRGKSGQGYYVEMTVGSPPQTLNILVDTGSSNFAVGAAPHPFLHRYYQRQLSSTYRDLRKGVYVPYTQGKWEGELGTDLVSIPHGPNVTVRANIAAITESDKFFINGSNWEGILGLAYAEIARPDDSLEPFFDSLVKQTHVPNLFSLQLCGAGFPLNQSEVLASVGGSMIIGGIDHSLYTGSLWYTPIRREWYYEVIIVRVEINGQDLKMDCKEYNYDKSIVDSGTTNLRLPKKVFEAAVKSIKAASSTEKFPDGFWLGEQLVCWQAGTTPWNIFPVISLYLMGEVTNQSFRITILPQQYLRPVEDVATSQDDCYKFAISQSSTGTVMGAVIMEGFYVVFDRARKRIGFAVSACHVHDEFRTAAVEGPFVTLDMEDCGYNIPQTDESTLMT

Row | Structure (SMILES) | IC50 [µM]
1 | N[C@@H](CCCCNC(=O)OCc1ccccc1)C(=O)OCc1ccccc1 [compound 1, S450588] | 51.6
2 | O=C(NCc1ccccc1)[C@@H](O)[C@H](O)C(=O)NCc1ccccc1 [compound 2, 276065] | 85.3
